# Results published in patent publication US20250230159A1, “FUSED HETEROCYCLIC COMPOUNDS AS MODULATORS OF RAS SIGNALLING” (Shenzhen Ionova Life Science Co., Ltd., priority 2022, published 2025).
# Like-named read-outs stand apart in the source and are kept apart here.
# Key:
# pERK in Hela cells = assay: Phospho-ERK (p-ERK) assay in Hela cells; format: cell-based; details: Homo sapiens, β-actin normalized
# Procedure: This Example illustrates that exemplary compounds of the present invention prevent KRas-mediated GTP nucleotide exchange mediated by SOS1 to inhibit KRas activity, thereby inhibiting the generation of the downstream effector pERK.
# Hela cells (23,000/w) were seeded in a black clear flat bottom 96-well cell culture plate (Corning, #3904) and incubated at 37° C. overnight. At day 2, cells were dosed with compounds of Formula (I) with a 10 μM starting concentration and serially diluted 3× for a total of 9 concentrations. The cells were incubated for 1 hour with the compounds solubilized in DMSO at 37° C. Cells were immediately fixed by adding 100 μL of 8% formaldehyde to all wells in a fume hood and the plates were incubated for 1 hr at room temperature. The formaldehyde was discarded from the plates and washed 5 times and each time for 5 min with 200 μL of Triton Washing Solution (0.1% Triton in PBS) each time to permeabilize the cells. Cells were then blocked with 150 μL of Odyssey blocking buffer (LI-COR Biosciences #927-50010) at room temperature on a shaker. The blocking buffer was discarded and 50 μL of primary antibodies pERK (cell signaling Technology #4370; Rabbit, 1:500) and β-actin (AF5001; Mouse, 1:2000) diluted in Odyssey blocking buffer was added. The plates were incubated overnight at 4° C. on a shaker.
# On day 3, the primary antibody solution was removed. Each plate was washed 5× times with 200 μL of 1×PBST (PBS+0.1% Tween 20) and incubated with 50 μL of secondary antibodies: Anti-Rabbit (LI-COR Biosciences #926-32211) and Anti-Mouse (LI-COR Biosciences #68070) at 1:1000 dilution in Odyssey blocking buffer at room temperature on a shaker for 1 hour (protected from light). The secondary antibody solution as removed and each plate was washed with PBST 5× times. Any liquid remaining was discarded and the plate was imaged using the Licor Odyssey machine according to the manufacturer's instruction, using a set focus length at 3.5 mm and both 800 nm and 700 nm filters. The 3-actin normalized scan values for each well were divided by the average of vehicle wells to get the % of p-ERK inhibition. The IC50 values were then calculated with the Graph pad Prism software. In general, p-ERK IC50 data are in line with the PPI IC50 data.
# [1] = biological target: KRAS-G12C/SOS1 interaction (Homo sapiens (Human), UniProt Q07889); assay: Protein-Protein Interaction (PPI) assay, SOS1-KRAS binding assay kit (HTRF)
# Sequence of KRAS-G12C/SOS1 interaction (Q07889 whole entry, stated change not applied): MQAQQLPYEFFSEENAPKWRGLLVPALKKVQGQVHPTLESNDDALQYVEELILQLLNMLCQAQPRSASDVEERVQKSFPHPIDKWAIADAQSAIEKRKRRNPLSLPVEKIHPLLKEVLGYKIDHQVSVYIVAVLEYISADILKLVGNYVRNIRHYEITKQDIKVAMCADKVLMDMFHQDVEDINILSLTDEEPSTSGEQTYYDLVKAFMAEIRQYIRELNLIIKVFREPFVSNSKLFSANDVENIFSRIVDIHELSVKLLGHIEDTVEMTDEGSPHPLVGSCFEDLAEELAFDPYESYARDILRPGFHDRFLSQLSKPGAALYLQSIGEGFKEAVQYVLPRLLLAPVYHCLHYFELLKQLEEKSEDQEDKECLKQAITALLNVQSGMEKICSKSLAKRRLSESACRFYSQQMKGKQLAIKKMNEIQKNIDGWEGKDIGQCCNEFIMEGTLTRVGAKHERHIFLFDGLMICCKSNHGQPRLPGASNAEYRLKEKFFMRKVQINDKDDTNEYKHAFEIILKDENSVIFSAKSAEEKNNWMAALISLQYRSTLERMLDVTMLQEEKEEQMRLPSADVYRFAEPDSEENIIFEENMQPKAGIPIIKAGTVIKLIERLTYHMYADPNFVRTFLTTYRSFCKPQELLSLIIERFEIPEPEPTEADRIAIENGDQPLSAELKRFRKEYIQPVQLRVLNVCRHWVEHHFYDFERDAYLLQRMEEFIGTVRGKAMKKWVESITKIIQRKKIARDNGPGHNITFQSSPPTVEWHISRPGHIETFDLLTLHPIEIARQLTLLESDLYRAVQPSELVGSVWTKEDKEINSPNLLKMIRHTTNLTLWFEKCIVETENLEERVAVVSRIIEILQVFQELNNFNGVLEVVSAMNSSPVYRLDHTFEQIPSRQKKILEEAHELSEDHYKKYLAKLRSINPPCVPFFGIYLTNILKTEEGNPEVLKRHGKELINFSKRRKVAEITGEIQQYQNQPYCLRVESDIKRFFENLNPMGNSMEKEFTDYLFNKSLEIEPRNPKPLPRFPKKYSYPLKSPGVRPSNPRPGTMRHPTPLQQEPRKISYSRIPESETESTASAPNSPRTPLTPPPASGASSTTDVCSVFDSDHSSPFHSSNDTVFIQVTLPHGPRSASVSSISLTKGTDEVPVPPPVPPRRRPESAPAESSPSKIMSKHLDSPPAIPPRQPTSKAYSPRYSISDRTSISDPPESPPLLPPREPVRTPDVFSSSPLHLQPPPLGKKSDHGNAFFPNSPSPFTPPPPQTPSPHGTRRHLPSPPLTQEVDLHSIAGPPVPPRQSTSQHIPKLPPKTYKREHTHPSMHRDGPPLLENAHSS
IC50 ([1]; read-out: PPI Assay IC50) [nM],IC50 [1] [nM],SMILES,"IC50 (pERK in Hela cells; Table 1, 1 hour with compound) [nM]","IC50 (pERK in Hela cells; Table 2, 1 hour with compound) [nM]"
< 100,–,CC(=O)N1CCN(c2cc3c(N[C@H](C)c4cccc(C(F)F)c4F)ncnc3n3nnnc23)CC1 [Example 99],< 100,–
< 100,–,"CC(=O)N1CC=C(c2cc3c(N[C@H](C)c4cccc(C(F)F)c4F)nc(C)nc3n3cnnc23)CC1 [Example 100, (R)-1-(4-(4-((1-(3-(difluoromethyl)-2-fluorophenyl)ethyl)amino)-2-methyl-[1,2,4]triazolo[4′,3′:1,6]pyrido[2,3-d]pyrimidin-6-yl)-3,6-dihydropyridin-1(2H)-yl)ethan-1-one]",> 100,–
< 100,–,CC(=O)N1CC=C(c2cc3c(N[C@H](C)c4cccc(C(F)F)c4F)ncnc3n3cnnc23)CC1 [Example 101],< 100,–
< 100,–,CC(=O)N1CC=C(c2cc3c(N[C@H](C)c4cccc(C(F)F)c4F)nc(C)nc3n3nnnc23)CC1 [Example 105],< 100,–
< 100,–,CC(=O)N1CC=C(c2cc3c(N[C@H](C)c4cccc(C(F)F)c4F)ncnc3n3nnnc23)CC1 [Example 106],< 100,–
< 100,–,"CC(=O)N1CCC(O)(c2cc3c(N[C@H](C)c4cccc(C(F)F)c4F)nc(C)nc3n3cnnc23)CC1 [Example 107, (R)-1-(4-(4-((1-(3-(difluoromethyl)-2-fluorophenyl)ethyl)amino)-2-methyl-[1,2,4]triazolo[4′,3′:1,6]pyrido[2,3-d]pyrimidin-6-yl)-4-hydroxypiperidin-1-yl)ethan-1-one]",< 100,–
< 100,–,CC(=O)N1CCC(O)(c2cc3c(N[C@H](C)c4cccc(C(F)F)c4F)ncnc3n3cnnc23)CC1 [Example 108],< 100,–
< 100,–,CC(=O)N1CCC(O)(c2cc3c(N[C@H](C)c4cccc(C(F)F)c4F)nc(C)nc3n3cnnc23)C1 (some centres unmarked) [Example 109],> 100,–
< 100,–,CC(=O)N1CCC(O)(c2cc3c(N[C@H](C)c4cccc(C(F)F)c4F)nc(C)nc3n3nnnc23)CC1 [Example 112],> 100,–
< 100,–,CC(=O)N1CCC(O)(c2cc3c(N[C@H](C)c4cccc(C(F)F)c4F)ncnc3n3nnnc23)CC1 [Example 113],> 100,–
< 100,–,"CC(=O)N1CCC(F)(c2cc3c(N[C@H](C)c4cccc(C(F)F)c4F)nc(C)nc3n3cnnc23)CC1 [Example 114, (R)-1-(4-(4-((1-(3-(difluoromethyl)-2-fluorophenyl)ethyl)amino)-2-methyl-[1,2,4]triazolo[4′,3′:1,6]pyrido[2,3-d]pyrimidin-6-yl)-4-fluoropiperidin-1-yl)ethan-1-one]",< 100,–
< 100,–,CC(=O)N1CCC(F)(c2cc3c(N[C@H](C)c4cccc(C(F)F)c4F)nc(C)nc3n3cnnc23)C1 (some centres unmarked) [Example 115],> 100,–
< 100,–,CC(=O)N1CCC(F)(c2cc3c(N[C@H](C)c4cccc(C(F)F)c4F)nc(C)nc3n3nnnc23)CC1 [Example 116],< 100,–
< 100,–,CC(=O)N1CCC(F)(c2cc3c(N[C@H](C)c4cccc(C(F)F)c4F)ncnc3n3nnnc23)CC1 [Example 117],< 100,–
< 100,–,"COC1(c2cc3c(N[C@H](C)c4cccc(C(F)F)c4F)nc(C)nc3n3cnnc23)CCN(C(C)=O)CC1 [Example 118, (R)-1-(4-(4-((1-(3-(difluoromethyl)-2-fluorophenyl)ethyl)amino)-2-methyl-[1,2,4]triazolo[4′,3′:1,6]pyrido[2,3-d]pyrimidin-6-yl)-4-methoxypiperidin-1-yl)ethan-1-one]",< 100,–
< 100,–,COC1(c2cc3c(N[C@H](C)c4cccc(C(F)F)c4F)ncnc3n3cnnc23)CCN(C(C)=O)CC1 [Example 119],< 100,–
< 100,–,COC1(c2cc3c(N[C@H](C)c4cccc(C(F)F)c4F)nc(C)nc3n3cnnc23)CCN(C(C)=O)C1 (some centres unmarked) [Example 120],< 100,–
< 100,–,COC1(c2cc3c(N[C@H](C)c4cccc(C(F)F)c4F)ncnc3n3cnnc23)CCS(=O)(=O)CC1 [Example 121],< 100,–
< 100,–,COC1(c2cc3c(N[C@H](C)c4cc(N)cc(C(F)(F)F)c4)ncnc3n3cnnc23)CCN(C(C)=O)CC1 [Example 122],< 100,–

IC50 ([1]; read-out: PPI Assay IC50) [nM],IC50 [1] [nM],SMILES,"IC50 (pERK in Hela cells; Table 1, 1 hour with compound) [nM]","IC50 (pERK in Hela cells; Table 2, 1 hour with compound) [nM]"
< 100,–,COC1(c2cc3c(N[C@H](C)c4cc(N)cc(C(F)(F)F)c4)ncnc3n3cnnc23)CCOCC1 [Example 123],< 100,–
< 100,–,COC1(c2cc3c(N[C@H](C)c4cccc(C(F)F)c4F)nc(C)nc3n3c(C)nnc23)CCN(C(C)=O)CC1 [Example 124],< 100,–
< 100,–,COC1(c2cc3c(N[C@H](C)c4cccc(C(F)F)c4F)ncnc3n3nnnc23)CCN(C(C)=O)CC1 [Example 125],< 100,–
< 100,–,"CC(=O)N1CCC(C)(c2cc3c(N[C@H](C)c4cccc(C(F)F)c4F)nc(C)nc3n3cnnc23)CC1 [Example 127, (R)-1-(4-(4-((1-(3-(difluoromethyl)-2-fluorophenyl)ethyl)amino)-2-methyl-[1,2,4]triazolo[4′,3′:1,6]pyrido[2,3-d]pyrimidin-6-yl)-4-methylpiperidin-1-yl)ethan-1-one]",< 100,–
< 100,–,C[C@@H](Nc1ncnc2c1cc(C1(C)CCS(=O)(=O)CC1)c1nncn12)c1cccc(C(F)F)c1F [Example 129],< 100,–
< 100,–,C[C@@H](Nc1ncnc2c1cc(C1(C)CCOCC1)c1nncn12)c1cc(N)cc(C(F)(F)F)c1 [Example 130],> 100,–
< 100,–,CC(=O)N1CCC(C)(c2cc3c(N[C@H](C)c4cccc(C(F)F)c4F)nc(C)nc3n3nnnc23)CC1 [Example 131],< 100,–
< 100,–,CC(=O)N1CCC(C)(c2cc3c(N[C@H](C)c4cccc(C(F)F)c4F)ncnc3n3nnnc23)CC1 [Example 132],< 100,–
< 100,–,"CC(=O)N1CCC(O)(c2cc3c(N[C@H](C)c4cccc(C(F)F)c4F)ncnc3n3c(C(F)(F)F)nnc23)CC1 [Example 135, (R)-1-(4-(4-((1-(3-(difluoromethyl)-2-fluorophenyl)ethyl)amino)-9-(trifluoromethyl)-[1,2,4]triazolo[4′,3′:1,6]pyrido[2,3-d]pyrimidin-6-yl)-4-hydroxypiperidin-1-yl)ethan-1-one]",> 100,–
< 100,–,"CC(=O)N1CCC(c2cc3c(N[C@H](C)c4cccc(C(F)F)c4F)ncnc3n3cnnc23)CC1 [Example 136, (R)-1-(4-(4-((1-(3-(difluoromethyl)-2-fluorophenyl)ethyl)amino)-[1,2,4]triazolo[4′,3′:1,6]pyrido[2,3-d]pyrimidin-6-yl)piperidin-1-yl)ethan-1-one]",> 100,–
< 100,–,CC(=O)N1CCC(c2cc3c(N[C@H](C)c4cccc(C(F)F)c4F)nc(C)nc3n3cnnc23)C1 (some centres unmarked) [Example 137],> 100,–
< 100,–,CC(=O)N1CCC(c2cc3c(N[C@H](C)c4cccc(C(F)F)c4F)nc(C)nc3n3nnnc23)CC1 [Example 142],> 100,–
< 100,–,CC(=O)N1CCC(c2cc3c(N[C@H](C)c4cccc(C(F)F)c4F)ncnc3n3nnnc23)CC1 [Example 145],< 100,–
< 100,–,C[C@@H](Nc1ncnc2c1cc(C1CCN(S(C)(=O)=O)CC1)c1nnnn12)c1cccc(C(F)F)c1F [Example 146],< 100,–
< 100,–,COCC(=O)N1CCC(c2cc3c(N[C@H](C)c4cc(N)cc(C(F)(F)F)c4)nc(C)nc3n3nnnc23)CC1 [Example 147],> 100,–
< 100,–,COCC(=O)N1CCC(c2cc3c(N[C@H](C)c4cccc(C(F)F)c4F)ncnc3n3nnnc23)CC1 [Example 148],> 100,–
–,> 100,"Cc1nc(N[C@H](C)c2cccc(C(F)F)c2F)c2cc(C3=CC[S+]([O-])CC3)c3nncn3c2n1 (stereo partly drawn) [Example 149, 4-(4-(((R)-1-(3-(difluoromethyl)-2-fluorophenyl)ethyl)amino)-2-methyl-[1,2,4]triazolo[4′,3′:1,6]pyrido[2,3-d]pyrimidin-6-yl)-3,6-dihydro-2H-thiopyran 1-oxide]",–,> 100
< 100,–,Cc1nc(N[C@H](C)c2cccc(C(F)F)c2F)c2cc(C3CC[S+]([O-])CC3)c3nncn3c2n1 (some centres unmarked) [Example 150],> 100,–
